# Laboratory results: patent US8916567B2, “Certain crystalline hydrates, pharmaceutical compositions thereof and methods for preparation and use thereof” (Universal Technology Alliance, Inc., priority 2009, dated 2014)
# Assay: Stability under high temperature and high humidity (relative humidity 75%, 40° C.)
# Assay type: physicochemical
# Experimental: In order to further evaluate the effect of temperature, humidity and light on the quality of the crystalline compounds of the present disclosure, the hydrates were placed in a dessicator with a relative humidity of 75% and at a constant temperature of 40° C. The samples were then collected at 1, 2, 3, and 6 months. Results are shown in Tables 10-14, wherein the “related substances” mean all of the ingredients in a sample except the active material. The content of the related substances in a sample was measure by HPLC in accordance to the Chinese Pharmacopeia (2005 edition, Part II, Appendix V D).
# [1] = water content by TGA, 0 month, hydrate
# [2] = water content by TGA, 1 month, hydrate
# [3] = water content by TGA, 2 months, hydrate
# [4] = water content by TGA, 3 months, hydrate
# [5] = water content by TGA, 6 months, hydrate
Structure (SMILES),Characters (0 month),"Related substances (%) (0 month, HPLC)",Characters (1 month),"Related substances (%) (1 month, HPLC)",Characters (2 months),"Related substances (%) (2 months, HPLC)",Characters (3 months),"Related substances (%) (3 months, HPLC)",Characters (6 months),"Related substances (%) (6 months, HPLC)","Related substances (%) (by HPLC, 0 month, hydrate)","Related substances (%) (by HPLC, 1 month, hydrate)","Related substances (%) (by HPLC, 2 months, hydrate)","Related substances (%) (by HPLC, 3 months, hydrate)","Related substances (%) (by HPLC, 6 months, hydrate)",TGA (%) [1] [%],TGA (%) [2] [%],TGA (%) [3] [%],TGA (%) [4] [%],TGA (%) [5] [%],further results
"CC(=O)NC[C@H]1CN(c2ccc(N3CCN(c4ccccc4)CC3)c(F)c2)C(=O)O1 [1/12 hydrate, (S)—[N-3-(3′-fluoro-4′-(4″-phenylpiperazinyl))phenyl-2-oxo-5-oxazolidinyl]methyl acetamide 1/12 hydrate]",White powder,0.94,White powder,0.88,White powder,0.90,White powder,0.92,White powder,0.93,–,–,–,–,–,–,–,–,–,–,"TGA (%) (0 month, hydrate): 0.40%; TGA (%) (1 month, hydrate): 0.38%; TGA (%) (2 months, hydrate): 0.39%; TGA (%) (3 months, hydrate): 0.40%; TGA (%) (6 months, hydrate): 0.42%"
"CC(=O)NC[C@H]1CN(c2ccc(N3CCN(c4ccccc4)CC3)c(F)c2)C(=O)O1 [2/7 hydrate, (S)—[N-3-(3′-fluoro-4′-(4″-phenylpiperazinyl))phenyl-2-oxo-5-oxazolidinyl]methyl acetamide 2/7 hydrate]",White powder,–,White powder,–,White powder,–,White powder,–,White powder,–,0.91,0.89,0.90,0.91,0.95,1.20,1.21,1.19,1.23,1.21,–
"CC(=O)NC[C@H]1CN(c2ccc(N3CCN(c4ccccc4)CC3)c(F)c2)C(=O)O1 [3/4 hydrate, (S)—[N-3-(3′-fluoro-4′-(4″-phenylpiperazinyl))phenyl-2-oxo-5-oxazolidinyl]methyl acetamide 3/4 hydrate]",White powder,0.94,White powder,0.88,White powder,0.90,White powder,0.92,White powder,0.93,–,–,–,–,–,–,–,–,–,–,"TGA (%) (0 month, listed as ¾ hydrate, hydrate): 3.10%; TGA (%) (1 month, listed as ¾ hydrate, hydrate): 3.11%; TGA (%) (2 months, listed as ¾ hydrate, hydrate): 3.10%; TGA (%) (3 months, listed as ¾ hydrate, hydrate): 3.09%; TGA (%) (6 months, listed as ¾ hydrate, hydrate): 3.10%"
"CC(=O)NC[C@H]1CN(c2ccc(N3CCN(c4ccccc4)CC3)c(F)c2)C(=O)O1 [½ hydrate, (S)—[N-3-(3′-fluoro-4′-(4″-phenylpiperazinyl))phenyl-2-oxo-5-oxazolidinyl]methyl acetamide 1/2 hydrate]",White powder,–,White powder,–,White powder,–,White powder,–,White powder,–,0.90,0.88,0.92,0.90,0.94,2.14,2.15,2.16,2.20,2.10,–
"CC(=O)NC[C@H]1CN(c2ccc(N3CCN(c4ccccc4)CC3)c(F)c2)C(=O)O1 [⅖ hydrate, (S)—[N-3-(3′-fluoro-4′-(4″-phenylpiperazinyl))phenyl-2-oxo-5-oxazolidinyl]methyl acetamide 2/5 hydrate]",White powder,–,White powder,–,White powder,–,White powder,–,White powder,–,0.93,0.89,0.91,0.93,0.92,1.71,1.73,1.70,1.72,1.72,–
